Assay [1] deals with T1, human D2R/β-arrestin (Homo sapiens (Human), UniProt P14416). In words: cell-based. The settings on record: β-arrestin Antagonist, CHO-K1 cells expressing human D2R/β-arrestin; antagonist mode, quinpirole 130 nM.
Assay [2] has as its target T1, human D2R/β-arrestin. Briefly: cell-based. To be noted: cAMP Antagonist, CHO-K1 cells expressing human D2R/β-arrestin; antagonist mode, 2.5 μM forskolin and 2.7 nM quinpirole.
Procedure: Cells were prepared for assays by growing cultures for up to 2 weeks (from about 6-20 passages). A vial of frozen cells was thawed in a water bath held at 37° C. The cells were then transferred into a 50 ml tube with 10 ml growth media. The vial was rinsed with growth media and the contents transferred to the 50 ml tube. The 50 ml tube was centrifuged at 1200 rpm for 5 minutes at room temperature. […] When the cells reached about 90% confluence (approximately 3 days between passages), the cells were passaged and used for either the agonist or antagonist assays as described below.
The cells were prepared for Gi/cAMP assays as described above. The assays were performed using a PE Lance Ultra cAMP kit (TRF0263). The cells were grown on 225 mm dishes, then washed once with 1×PBS (Cellgro) before digestion with 2.5 ml 1× Detachment reagent (DRX 92-0009) for about 2 minutes. PBS (20 ml) was then added to the plate, and the cells were transferred to a 50 ml centrifuge tube, and centrifuged at room temperature using BD Dynac III, at 1200 rpm for 5 minutes. […] The plates were then incubated at room temperature for about 30 minutes before addition of Eu-cAMP tracer solution (10 μl, PerkinElmer) and then ULight-anti-cAMP solution (10 μl) to each well.
Assay [3] deals with T1, human D2R/β-arrestin. In words: β-arrestin agonist assay (PathHunter). The class given is cell-based. The settings on record: CHO-K1 cells expressing human D2R/β-arrestin; agonist mode. The procedure:
The detection reagent (9.6 μL, Buffer:Emerald II:Galactor-Star in a 19:5:1 ratio, i.e., 14.06 mL:3.7 mL:0.74 mL=18.5 mL) was then added to the agonist plates.

The target of assay [4] is T1, human D2R/β-arrestin. Briefly: Gi/cAMP agonist assay (Lance Ultra cAMP, forskolin). It is filed as cell-based. To be noted: CHO-K1 cells expressing human D2R/β-arrestin; agonist mode, 2.5 μM forskolin. The protocol: Eu-cAMP tracer solution (10 μl, PerkinElmer, 360 μl of Tracer in 17.64 ml kit buffer) and ULight-anti-cAMP solution (10 μl, 120 μL antibody in 17.88 ml kit buffer) was then added to each well.

Each structure is given as a SMILES string. pEC50, pIC50: −log10 of the molar value. Where only a bound is given, the exact number is not on record here.

T1 sequence (P14416 whole entry): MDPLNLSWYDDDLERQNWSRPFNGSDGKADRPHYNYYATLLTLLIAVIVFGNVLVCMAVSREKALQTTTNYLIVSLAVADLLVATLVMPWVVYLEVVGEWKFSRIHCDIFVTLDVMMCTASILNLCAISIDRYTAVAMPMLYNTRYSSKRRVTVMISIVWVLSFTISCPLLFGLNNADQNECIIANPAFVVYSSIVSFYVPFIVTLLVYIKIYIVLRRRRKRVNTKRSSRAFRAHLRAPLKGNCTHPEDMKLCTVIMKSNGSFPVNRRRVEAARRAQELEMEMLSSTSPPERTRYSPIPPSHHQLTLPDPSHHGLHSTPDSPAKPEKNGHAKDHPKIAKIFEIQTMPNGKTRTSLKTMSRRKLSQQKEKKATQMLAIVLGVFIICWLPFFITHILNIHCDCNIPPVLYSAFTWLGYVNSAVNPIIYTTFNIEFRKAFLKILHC

On to `CC1(Oc2ccc(Cl)cc2)CCN(CCOc2cccc(F)c2)C1` (stereo not drawn) [Compound 180, 3-(4-chlorophenoxy)-1-(2-(3-fluorophenoxy)ethyl)-3-methylpyrrolidine], for which the pIC50 is 5.00 to 6.00 against human D2R/β-arrestin [1] and < 4.52 at human D2R/β-arrestin [2]. Also, the values for the pEC50 on human D2R/β-arrestin [3] and at human D2R/β-arrestin [4] were < 4.52 and > 7.00, respectively.
Take `c1ccc(OCCN2CCC3(Cc4ccccc4O3)C2)cc1` (stereo not drawn) [Compound 181, 1′-(2-phenoxyethyl)-3H-spiro[benzofuran-2,3′-pyrrolidine]]: the negative logarithm of the IC50 (pIC50) on human D2R/β-arrestin [1] is 5.00 to 6.00; against human D2R/β-arrestin [2], > 7.00. Besides, the pEC50 on human D2R/β-arrestin [3] and on human D2R/β-arrestin [4] was < 4.52 in each case.
On to `CC1(Oc2ccc(Cl)cc2)CCN(CCOc2cccnc2)CC1` [Compound 182, 3-(2-(4-(4-chlorophenoxy)-4-methylpiperidin-1-yl)ethoxy)pyridine], for which the pIC50 against human D2R/β-arrestin [1] and against human D2R/β-arrestin [2] was < 4.52 in each case. Further, the negative logarithm of the EC50 (pEC50) is 6.00 to 7.00 on human D2R/β-arrestin [3] and > 7.00 at human D2R/β-arrestin [4].
`CC1(Oc2ccc(Cl)cc2)CCN(CCOc2ccncc2)CC1` [Compound 183, 4-(2-(4-(4-chlorophenoxy)-4-methylpiperidin-1-yl)ethoxy)pyridine]: the negative logarithm of the IC50 (pIC50) is 5.00 to 6.00 at human D2R/β-arrestin [1] and < 4.52 against human D2R/β-arrestin [2]. Further, the values for the pEC50 at human D2R/β-arrestin [3] and at human D2R/β-arrestin [4] were 5.00 to 6.00 and 6.00 to 7.00, respectively.
Consider `CC1(Oc2ccc(Cl)cc2)CCN(CCOc2ccc(C(F)(F)F)c(O)c2)CC1` [Compound 184, 5-(2-(4-(4-chlorophenoxy)-4-methylpiperidin-1-yl)ethoxy)-2-(trifluoromethyl)phenol], for which the negative logarithm of the IC50 (pIC50) against human D2R/β-arrestin [1] is 4.52 to 5.00; against human D2R/β-arrestin [2] it was < 4.52. The negative logarithm of the EC50 (pEC50) on human D2R/β-arrestin [3] was < 4.52; at human D2R/β-arrestin [4], 5.00 to 6.00.
For the compound `CC1(Oc2ccc(Cl)cc2)CCN(CCOc2ccc(C#N)cc2)CC1` [Compound 185, 4-(2-(4-(4-chlorophenoxy)-4-methylpiperidin-1-yl)ethoxy)benzonitrile], the pIC50 on human D2R/β-arrestin [1] is 4.52 to 5.00; at human D2R/β-arrestin [2], < 4.52. Besides, the pEC50 was < 4.52 on human D2R/β-arrestin [3] and 5.00 to 6.00 at human D2R/β-arrestin [4].
Take `CC1(Oc2ccc(Cl)cc2)CCN(CCOc2cn[nH]c2)CC1` [Compound 186, 1-(2-((1H-pyrazol-4-yl)oxy)ethyl)-4-(4-chlorophenoxy)-4-methylpiperidine]: the results for the negative logarithm of the IC50 (pIC50) against human D2R/β-arrestin [1] and on human D2R/β-arrestin [2] were 5.00 to 6.00 and 6.00 to 7.00, respectively. The values for the negative-log EC50 (pEC50) at human D2R/β-arrestin [3] and at human D2R/β-arrestin [4] were 5.00 to 6.00 and 6.00 to 7.00, respectively.
Take `CC(=O)c1cc(F)ccc1OCCN1CCC(C)(Oc2ccc(Cl)cc2)CC1` [Compound 187, 1-(2-(2-(4-(4-chlorophenoxy)-4-methylpiperidin-1-yl)ethoxy)-5-fluorophenyl)ethan-1-one]: the pIC50 against human D2R/β-arrestin [1] and at human D2R/β-arrestin [2] was 5.00 to 6.00 in each case. For the same compound, the pEC50 at human D2R/β-arrestin [3] was < 4.52; on human D2R/β-arrestin [4], 6.00 to 7.00.
With `COc1ccccc1OCCN1CCC(C)(Oc2ccc(Cl)cc2)CC1` [Compound 188, 4-(4-chlorophenoxy)-1-(2-(2-methoxyphenoxy)ethyl)-4-methylpiperidine], the negative-log IC50 (pIC50) on human D2R/β-arrestin [1] was 6.00 to 7.00; against human D2R/β-arrestin [2], 5.00 to 6.00. The pEC50 on human D2R/β-arrestin [3] was < 4.52; on human D2R/β-arrestin [4] it was 6.00 to 7.00.
Consider `COc1cc(F)c(F)cc1OCCN1CCC(C)(Oc2ccc(Cl)cc2)CC1` [Compound 189, 4-(4-chlorophenoxy)-1-(2-(4,5-difluoro-2-methoxyphenoxy)ethyl)-4-methylpiperidine], for which the negative-log IC50 (pIC50) against human D2R/β-arrestin [1] and against human D2R/β-arrestin [2] was 5.00 to 6.00 each time. Besides, the negative-log EC50 (pEC50) at human D2R/β-arrestin [3] was < 4.52; at human D2R/β-arrestin [4] it was 5.00 to 6.00.
`CC(C)Oc1ccc(F)cc1OCCN1CCC(C)(Oc2ccc(Cl)cc2)CC1` [Compound 190, 4-(4-chlorophenoxy)-1-(2-(5-fluoro-2-isopropoxyphenoxy)ethyl)-4-methylpiperidine]: the pIC50 against human D2R/β-arrestin [1] was 5.00 to 6.00; against human D2R/β-arrestin [2] it was 6.00 to 7.00. In addition, the pEC50 was < 4.52 at human D2R/β-arrestin [3] and 6.00 to 7.00 on human D2R/β-arrestin [4].
Regarding `CC(C)Oc1cc(F)ccc1OCCN1CCC(C)(Oc2ccc(Cl)cc2)CC1` [Compound 191, 4-(4-chlorophenoxy)-1-(2-(4-fluoro-2-isopropoxyphenoxy)ethyl)-4-methylpiperidine], the figures for the pIC50 against human D2R/β-arrestin [1] and at human D2R/β-arrestin [2] were 5.00 to 6.00 and 6.00 to 7.00, respectively. In addition, the pEC50 on human D2R/β-arrestin [3] and at human D2R/β-arrestin [4] was < 4.52 each time.
For the compound `CC(C)C1(Oc2ccc(Cl)cc2)CCN(CCOc2ccccc2C(F)(F)F)CC1` [Compound 192, 4-(4-chlorophenoxy)-4-isopropyl-1-(2-(2-(trifluoromethyl)phenoxy)ethyl)piperidine], the negative logarithm of the IC50 (pIC50) at human D2R/β-arrestin [1] is 5.00 to 6.00; on human D2R/β-arrestin [2] it was 6.00 to 7.00. The negative-log EC50 (pEC50) was < 4.52 on human D2R/β-arrestin [3] and 5.00 to 6.00 at human D2R/β-arrestin [4].
`C#CC1(Oc2ccc(Cl)cc2)CCN(CCOc2ccccc2C(F)(F)F)CC1` [Compound 193, 4-(4-chlorophenoxy)-4-ethynyl-1-(2-(2-(trifluoromethyl)phenoxy)ethyl)piperidine]: the pIC50 is 5.00 to 6.00 at human D2R/β-arrestin [1] and < 4.52 at human D2R/β-arrestin [2]. Moreover, the negative logarithm of the EC50 (pEC50) on human D2R/β-arrestin [3] was 5.00 to 6.00; at human D2R/β-arrestin [4] it was > 7.00.
Turning to `C#CC1(Oc2ccccc2)CCN(CCOc2ccccc2C(F)(F)F)CC1` [Compound 194, 4-ethynyl-4-phenoxy-1-(2-(2-(trifluoromethyl)phenoxy)ethyl)piperidine], the pIC50 was 5.00 to 6.00 at human D2R/β-arrestin [1] and < 4.52 against human D2R/β-arrestin [2]. Further, the negative logarithm of the EC50 (pEC50) at human D2R/β-arrestin [3] is 6.00 to 7.00; on human D2R/β-arrestin [4], > 7.00.
For `CC1(Oc2ccc(Cl)cc2)CCN(CCn2cccc(C(F)(F)F)c2=O)CC1` [Compound 195, 1-(2-(4-(4-chlorophenoxy)-4-methylpiperidin-1-yl)ethyl)-3-(trifluoromethyl)pyridin-2(1H)-one] the same measures were < 4.52, < 4.52, < 4.52 and < 4.52.
On to `C[C@@]1(O)C[C@H]2CC[C@@H](C1)N2CCOc1ccccc1C(F)(F)F` [Compound 196, (1R,3s,5S)-3-methyl-8-(2-(2-(trifluoromethyl)phenoxy)ethyl)-8-azabicyclo[3.2.1]octan-3-ol], for which the pIC50 at human D2R/β-arrestin [1] was 4.52 to 5.00; on human D2R/β-arrestin [2], 5.00 to 6.00. Further, the negative-log EC50 (pEC50) at human D2R/β-arrestin [3] and at human D2R/β-arrestin [4] was < 4.52 each time.
In the case of `CNC(=O)C1(C)CCN(CCOc2ccccc2C(F)(F)F)CC1` [Compound 198, N,4-dimethyl-1-(2-(2-(trifluoromethyl)phenoxy)ethyl)piperidine-4-carboxamide], the pIC50 against human D2R/β-arrestin [1] and at human D2R/β-arrestin [2] was > 7.00 each time. For the same compound, the pEC50 at human D2R/β-arrestin [3] and on human D2R/β-arrestin [4] was < 4.52 each time.
Turning to `CNC(=O)C1(C)CCN(CCOc2ccccc2)CC1` [Compound 199, N, 4-dimethyl-1-(2-phenoxyethyl)piperidine-4-carboxamide], the negative logarithm of the IC50 (pIC50) is 5.00 to 6.00 against human D2R/β-arrestin [1] and < 4.52 against human D2R/β-arrestin [2]. Moreover, the pEC50 was < 4.52 at human D2R/β-arrestin [3] and 6.00 to 7.00 on human D2R/β-arrestin [4].
As for `CNC(=O)C1(C)CCN(CCOc2ccccc2F)CC1` [Compound 200, 1-(2-(2-fluorophenoxy)ethyl)-N,4-dimethylpiperidine-4-carboxamide], the results for the negative logarithm of the IC50 (pIC50) against human D2R/β-arrestin [1] and against human D2R/β-arrestin [2] were 5.00 to 6.00 and 6.00 to 7.00, respectively. Also, the values for the negative-log EC50 (pEC50) at human D2R/β-arrestin [3] and at human D2R/β-arrestin [4] were < 4.52 and 6.00 to 7.00, respectively.
Take `CNC(=O)C1(C)CCN(CCOc2ccccc2OC)CC1` [Compound 201, 1-(2-(2-methoxyphenoxy)ethyl)-N,4-dimethylpiperidine-4-carboxamide]: the pIC50 is 5.00 to 6.00 at human D2R/β-arrestin [1] and 6.00 to 7.00 against human D2R/β-arrestin [2]. Besides, the pEC50 on human D2R/β-arrestin [3] and on human D2R/β-arrestin [4] was < 4.52 in each case.

What is called pIC50 is the negative decadic logarithm of the IC50, by convention in mol/L. The pEC50 is the negative decadic logarithm of the EC50, by convention in mol/L. A higher pEC50 goes with a small EC50.

These data come from patent US11498896B2 (The Broad Institute, Inc., priority 2014, dated 2022).
